Source: PMC2957562 (Bioorganic & medicinal chemistry letters, 2010)

How the values were obtained:
HIV-1 Integrase [1] = target: T1, HIV-1 Integrase (Human immunodeficiency virus type 1 group M subtype B, UniProt P04585); test: HIV-1 integrase 3′-processing inhibition; format: biochemical
HIV-1 Integrase [2] = target: T1, HIV-1 Integrase; test: HIV-1 integrase strand transfer inhibition; format: biochemical

Structure (SMILES)	IC50 (HIV-1 Integrase [1])	IC50 (HIV-1 Integrase [2])	Strand Transfer IC50 (HIV-1 Integrase [2]; in vitro, strand transfer step)
COc1ccc(/C=C2\C(=O)N(c3cccc(Br)c3)N=C2C(F)(F)F)c(OC)c1OC [Compound 4b]	> 100 µM	> 100 µM	
O=C1/C(=C\c2ccc(O)c(OCc3ccc(F)cc3)c2)C(C(F)(F)F)=NN1c1cccc(Br)c1 [Compound 4f]	> 100 µM		
COc1ccc(/C=C2\C(=O)N(c3ccccc3)N=C2C(F)(F)F)cc1OCc1ccc(F)cc1 [Compound 5a]	> 100 µM	> 100 µM	
COc1ccc(/C=C2\C(=O)N(c3cccc(C)c3)N=C2C(F)(F)F)cc1OCc1ccc(F)cc1 [Compound 5b]	> 100 µM	> 100 µM	
COc1ccc(/C=C2\C(=O)N(c3cccc(-c4ccccc4)c3)N=C2C(F)(F)F)cc1OCc1ccc(F)cc1 [Compound 5d]	> 100 µM		
COc1ccc(/C=C2\C(=O)N(c3cccc(F)c3)N=C2C(F)(F)F)cc1OCc1ccc(F)cc1 [Compound 5f]	> 100 µM		
COc1ccc(/C=C2\C(=O)N(c3cccc(I)c3)N=C2C(F)(F)F)cc1OCc1ccc(F)cc1 [Compound 5i]	> 100 µM		
COc1ccc(/C=C2\C(=O)N(c3cc(Cl)cc(Cl)c3)N=C2C(F)(F)F)cc1OCc1ccc(F)cc1 [Compound 5j]	> 100 µM		
COc1ccc(/C=C2\C(=O)N(c3ccc(C(=O)O)cc3)N=C2C(F)(F)F)cc1OCc1ccc(F)cc1 [Compound 5m]	> 100 µM		
COc1ccc(/C=C2\C(=O)N(c3ccc(NS(C)(=O)=O)cc3)N=C2C(F)(F)F)cc1OCc1ccc(F)cc1 [Compound 5n]	> 100 µM	> 100 µM	
COc1ccc(/C=C2\C(=O)N(c3nc4ccccc4s3)N=C2C(F)(F)F)cc1OCc1ccc(F)cc1 [Compound 5o]	> 100 µM		
COc1ccc(/C=C2\C(=O)N(c3cccc(Br)c3)N=C2C)cc1OCc1ccc(F)cc1 [Compound 6a]	> 100 µM	> 100 µM	
CCC1=NN(c2cccc(Br)c2)C(=O)/C1=C\c1ccc(OC)c(OCc2ccc(F)cc2)c1 [Compound 6b]	> 100 µM	> 100 µM	
COc1ccc(/C=C2\C(=O)N(c3cccc(Br)c3)N=C2NC(=O)C(F)(F)F)cc1OCc1ccc(F)cc1 [Compound 6d]	> 100 µM	> 100 µM	
COc1ccc(/C=C2\C(=O)N(c3cccc(Br)c3)N=C2OC(C)=O)cc1OCc1ccc(F)cc1 [Compound 6e]	> 100 µM		
COc1ccc(/C=C2\C(=O)N(c3cccc(Br)c3)N=C2COC(C)=O)cc1OCc1ccc(F)cc1 [Compound 6f]	> 100 µM		
CCC(=O)OC1=NN(c2cccc(Br)c2)C(=O)/C1=C\c1ccc(OC)c(OCc2ccc(F)cc2)c1 [Compound 6g]	> 100 µM		
O=C(O)C1=NN(c2cccc([N+](=O)[O-])c2)C(=O)/C1=C\c1ccc(OCc2ccc(F)cc2)c(O)c1 [Compound 14d]			single-digit micromolar
COc1ccc(/C=C2\C(=O)N(c3ccc(I)cc3)N=C2C(F)(F)F)cc1OCc1ccc(F)cc1 [Compound 56l]	> 100 µM		
